Experimental data taken from patent publication US20260130933A1, “PHARMACEUTICAL COMPOSITION FOR PREVENTION OR TREATMENT OF NEPHROPATHY AND/OR DIABETES MELLITUS, COMPRISING ENAVOGLIFLOZIN” (DAEWOONG PHARMACEUTICAL CO., LTD., priority 2022, published 2026).

Test: Dissolution test method 2 of the Korean Pharmacopoeia (paddle method)
Type: physicochemical
Conditions: average particle size greater than 15 μm
Experimental: The dissolution rate of the active ingredient in the pharmaceutical composition affects the maximum blood concentration (Cmax) and the blood concentration-area under the blood concentration-time curve (AUC) when administering the drug, that is to say, in order to achieve appropriate Cmax and AUC, it is important to adjust the dissolution rate of the pharmaceutical composition. […] The above dissolution rate was measured under the condition of the dissolved solution 1.2 in accordance of the dissolution test method 2 of the Korean Pharmacopoeia (paddle method). For specific conditions, refer to the following experimental examples.

5-minute dissolution rate: less than 40%
30-minute dissolution rate: less than 80%
SMILES: OC[C@H]1O[C@@H](c2cc(Cc3ccc(C4CC4)cc3)c(Cl)c3c2CCO3)[C@H](O)[C@@H](O)[C@@H]1O [Enavogliflozin, (2S,3R,4R,5S,6R)-2-(7-chloro-6 (4-cyclopropylbenzyl)-2,3-dihydrobenzofuran-4-yl)-6-(hydroxymethyl)tetrahydro-2H-pyran-3,4,5-triol]
